Results on 42 compounds are retold here after US7964735B2, “Insecticidal 3-acylaminobenzanilides” (Bayer Cropscience AG, priority 2005, dated 2011).

The first data set relates to organic phosphorus agent- and carbamate agent-resistant Myzus persicasypii. Put plainly: Test to organic phosphorus agent- and carbamate agent-resistant Myzus persicasypii (spray on eggplant). Type of data set: in vivo. The conditions noted are these: efficacious component concentration 500 ppm; sprayed on eggplant; 28° C.; after 7 days from spraying. Here is the method: (§1) • Sample Solution Preparation • Solvent: dimethylformamide 3 part by weight • Emulsifier: polyoxyethylene alkyl phenyl ether 1 part by weight
(§2) To prepare a proper active compound, the active compound 1 part by weight was mixed with the above-mentioned solvent containing the above-mentioned emulsifier and the mixture was diluted with water to a prescribed concentration.
30 grown organic phosphorus agent- and carbamate agent-resistant Myzus persicasypii were inoculated in each vinyl pot with 6 cm diameter in which eggplant seeding was done and after 1 day from the inoculation, the above produced active compound diluted with water to have a prescribed concentration was sufficiently sprayed by a spray gun. After the spraying, the vinyl pots were left in a greenhouse at 28° C. and the insect extermination ratio was calculated after 7 days from spraying. The test was repeated two times.
With `CCc1cc(C(F)(C(F)(F)F)C(F)(F)F)cc(C)c1NC(=O)c1cccc(NC(=O)c2ccc(F)cc2)c1` [Compound 61], the “insecticidal ratio (insect extermination ratio)” value came out at 100%. The same measure, in the same setting: under `CCc1cc(C(F)(C(F)(F)F)C(F)(F)F)cc(C)c1NC(=O)c1cccc(NC(=O)c2ccccc2Cl)c1` [Compound 57] stands 100%; under `CCc1cc(C(F)(C(F)(F)F)C(F)(F)F)cc(C)c1NC(=O)c1cccc(NC(=O)c2cnccc2C(F)(F)F)c1` [Compound 1, 3-[4-(trifluoromethyl)nicotinyl]amino-N-(2-ethyl-6-methyl-4-heptafluoroisopropylphenyl)benzamide], 100%.

`Cc1cc(C(F)(C(F)(F)F)C(F)(F)F)cc(C)c1NC(=O)c1cccc(NC(=O)c2ccc(Cl)cc2)c1F` [Compound 139]: the “insecticidal ratio (insect extermination ratio)” value stood at 100%. On to `CCc1cc(C(F)(C(F)(F)F)C(F)(F)F)cc(C)c1NC(=O)c1cccc(NC(=O)c2cccc(Cl)c2)c1` [Compound 58], for which the “insecticidal ratio (insect extermination ratio)” value was 100%. Turning to `CCc1cc(C(F)(C(F)(F)F)C(F)(F)F)cc(C)c1NC(=O)c1cccc(NC(=O)c2ccccc2F)c1` [Compound 63], the “insecticidal ratio (insect extermination ratio)” value was 100%.

The next data set relates to third stage larvae of Spodoptera litura. Put plainly: Test to larvae of Spodoptera litura (leaf immersion). The conditions noted are these: efficacious component concentration 20 ppm; batata leaves immersed; 25° C.; after 7 days; average of two dishes. Type of data set: in vivo. Here is the method: as §1, §2
Leaves of batata were immersed in the sample solution diluted with water to a prescribed concentration and then the solution was dried out by air and the resulting leaves were put in a laboratory dish and 10 third stage larvae of Spodoptera litura were released and put in a greenhouse at a temperature 25° C. and the leaves of batata were added on second day and fourth day and the number of dead larvae was investigated after 7 days and the ratio of the dead larvae was calculated.
The results were the averages of two laboratory dishes for respective 1 group in this test.
Consider `CCc1cc(C(F)(C(F)(F)F)C(F)(F)F)cc(C)c1NC(=O)c1cccc(NC(=O)c2ccc(C)cc2)c1` [Compound 64], for which the “insecticidal ratio (ratio of the dead larvae)” value came out at 100%.

In the case of `CCc1cc(C(F)(C(F)(F)F)C(F)(F)F)cc(C)c1NC(=O)c1cccc(NC(=O)c2ccc(F)cc2)c1` [Compound 61], the “insecticidal ratio (ratio of the dead larvae)” value is reported as 100%. On the same count and under the same terms, under `CCc1cc(C(F)(C(F)(F)F)C(F)(F)F)cc(C)c1NC(=O)c1cccc(NC(=O)c2c(F)cc(F)cc2F)c1` [Compound 52] stands 100%; under `CCc1cc(C(F)(C(F)(F)F)C(F)(F)F)cc(C)c1NC(=O)c1cccc(NC(=O)c2ccccc2I)c1` [Compound 36], 100%; under `CCc1cc(C(F)(C(F)(F)F)C(F)(F)F)cc(C)c1NC(=O)c1cccc(NC(=O)c2ccc(Cl)cc2Cl)c1` [Compound 44], 100%. In the case of `CCc1cc(C(F)(C(F)(F)F)C(F)(F)F)cc(C)c1NC(=O)c1cccc(NC(=O)c2c(Cl)cccc2Cl)c1` [Compound 46], the “insecticidal ratio (ratio of the dead larvae)” value came to 100%.

Regarding `CCc1cc(C(F)(C(F)(F)F)C(F)(F)F)cc(C)c1NC(=O)c1cccc(NC(=O)c2ccccc2C)c1` [Compound 66], the “insecticidal ratio (ratio of the dead larvae)” value is listed as 100%. Still for that read-out and setting: under `CCc1cc(C(F)(C(F)(F)F)C(F)(F)F)cc(C)c1NC(=O)c1cccc(NC(=O)c2snnc2C)c1` [Compound 35] stands 100%; under `CCc1cc(C(F)(C(F)(F)F)C(F)(F)F)cc(C)c1NC(=O)c1cccc(NC(=O)c2ccc(Cl)c(Cl)c2)c1` [Compound 43], 100%. Still for that read-out and setting: under `CCc1cc(C(F)(C(F)(F)F)C(F)(F)F)cc(C)c1NC(=O)c1cccc(NC(=O)c2ccc(Cl)cc2)c1` [Compound 59] stands 100%; under `CCc1cc(C(F)(C(F)(F)F)C(F)(F)F)cc(C)c1NC(=O)c1cccc(NC(=O)c2cccc(F)c2)c1` [Compound 62], 100%; under `Cc1cc(C(F)(C(F)(F)F)C(F)(F)F)cc(C)c1NC(=O)c1cccc(NC(=O)c2ccccc2Cl)c1F` [Compound 134], 100%.

In the case of `CCc1cc(C(F)(C(F)(F)F)C(F)(F)F)cc(C)c1NC(=O)c1cccc(NC(=O)c2c(F)cccc2F)c1` [Compound 54], the “insecticidal ratio (ratio of the dead larvae)” value worked out at 100%. On the same count and under the same terms, under `CCc1cc(C(F)(C(F)(F)F)C(F)(F)F)cc(C)c1NC(=O)c1cccc(NC(=O)c2ccccc2C(F)(F)F)c1` [Compound 51] stands 100%; under `Cc1cc(C(F)(C(F)(F)F)C(F)(F)F)cc(C)c1NC(=O)c1cccc(NC(=O)c2c(F)cccc2F)c1` [Compound 72], 100%; under `CCc1cc(C(F)(C(F)(F)F)C(F)(F)F)cc(C)c1NC(=O)c1cccc(NC(=O)c2cccc(Cl)c2Cl)c1` [Compound 47], 100%. On to `CCc1cc(C(F)(C(F)(F)F)C(F)(F)F)cc(C)c1NC(=O)c1cccc(NC(=O)c2ccc(OC)cc2)c1` [Compound 60], for which the “insecticidal ratio (ratio of the dead larvae)” value amounted to 100%.

In the case of `CCc1cc(C(F)(C(F)(F)F)C(F)(F)F)cc(C)c1NC(=O)c1cccc(NC(=O)c2cnccc2C(F)(F)F)c1` [Compound 1, 3-[4-(trifluoromethyl)nicotinyl]amino-N-(2-ethyl-6-methyl-4-heptafluoroisopropylphenyl)benzamide], the “insecticidal ratio (ratio of the dead larvae)” value amounted to 100%. As to `CCc1cc(C(F)(C(F)(F)F)C(F)(F)F)cc(C)c1NC(=O)c1cccc(NC(=O)c2cc(Cl)sc2Cl)c1` [Compound 24], the “insecticidal ratio (ratio of the dead larvae)” value was 100%. On the same count and under the same terms, under `CCc1cc(C(F)(C(F)(F)F)C(F)(F)F)cc(C)c1NC(=O)c1cccc(NC(=O)c2ccc(Cl)nc2)c1` [Compound 3] stands 100%. On the same count and under the same terms, under `Cc1cc(C(F)(C(F)(F)F)C(F)(F)F)cc(C)c1NC(=O)c1cccc(NC(=O)c2ccc(Cl)cc2)c1F` [Compound 139] stands 100%; under `CCc1cc(C(F)(C(F)(F)F)C(F)(F)F)cc(C)c1NC(=O)c1cccc(NC(=O)c2cccs2)c1` [Compound 30], 100%. Consider `CCc1cc(C(F)(C(F)(F)F)C(F)(F)F)cc(C)c1NC(=O)c1cccc(NC(=O)c2cc(Cl)ccc2Cl)c1` [Compound 48], for which the “insecticidal ratio (ratio of the dead larvae)” value is listed as 100%. Same read-out and setting: under `CCc1cc(C(F)(C(F)(F)F)C(F)(F)F)cc(C)c1NC(=O)c1cccc(NC(=O)c2ccccc2Br)c1` [Compound 40] stands 100%; under `CCc1cc(C(F)(C(F)(F)F)C(F)(F)F)cc(C)c1NC(=O)c1cccc(NC(=O)c2ccc(OC(F)(F)F)cc2)c1` [Compound 39], 100%. On the same count and under the same terms, under `CCc1cc(C(F)(C(F)(F)F)C(F)(F)F)cc(C)c1NC(=O)c1cccc(NC(=O)c2ccccc2Cl)c1` [Compound 38] stands 100%. With `Cc1cc(C(F)(C(F)(F)F)C(F)(F)F)cc(I)c1NC(=O)c1cccc(NC(=O)c2ccccc2Cl)c1` [Compound 37], the “insecticidal ratio (ratio of the dead larvae)” value stood at 100%. Same read-out and setting: under `CCc1cc(C(F)(C(F)(F)F)C(F)(F)F)cc(C)c1NC(=O)c1cccc(NC(=O)c2ccc(F)cc2F)c1` [Compound 56] stands 100%; under `CCc1cc(C(F)(C(F)(F)F)C(F)(F)F)cc(C)c1NC(=O)c1cccc(NC(=O)c2cccc(Br)c2)c1` [Compound 41], 100%. In the case of `CCc1cc(C(F)(C(F)(F)F)C(F)(F)F)cc(C)c1NC(=O)c1cccc(NC(=O)c2ccc(C(F)(F)F)cc2)c1` [Compound 49], the “insecticidal ratio (ratio of the dead larvae)” value was 100%. Still for that read-out and setting: under `CCc1cc(C(F)(C(F)(F)F)C(F)(F)F)cc(C)c1NC(=O)c1cccc(NC(=O)c2ncc(C(F)(F)F)cc2Cl)c1` [Compound 13] stands 100%; under `CCc1cc(C(F)(C(F)(F)F)C(F)(F)F)cc(C)c1NC(=O)c1cccc(NC(=O)c2cccc(Cl)c2)c1` [Compound 58], 100%; under `CCc1cc(C(F)(C(F)(F)F)C(F)(F)F)cc(C)c1NC(=O)c1cccc(NC(=O)c2cc(Cl)cc(Cl)c2)c1` [Compound 45], 100%.

As for `CCc1cc(C(F)(C(F)(F)F)C(F)(F)F)cc(C)c1NC(=O)c1cccc(NC(=O)c2ccc(Br)cc2)c1` [Compound 42], the “insecticidal ratio (ratio of the dead larvae)” value amounted to 100%.

For `Cc1cc(C(F)(C(F)(F)F)C(F)(F)F)cc(C)c1NC(=O)c1cccc(NC(=O)c2ccccc2)c1` [Compound 88], the “insecticidal ratio (ratio of the dead larvae)” value stood at 100%.

`Cc1cc(C(F)(C(F)(F)F)C(F)(F)F)cc(C)c1NC(=O)c1cccc(NC(=O)c2ccc(Cl)cc2)c1` [Compound 77]: the “insecticidal ratio (ratio of the dead larvae)” value came out at 100%. Consider `CCc1cc(C(F)(C(F)(F)F)C(F)(F)F)cc(C)c1NC(=O)c1cccc(NC(=O)c2cccc(F)c2F)c1` [Compound 55], for which the “insecticidal ratio (ratio of the dead larvae)” value is 100%. Turning to `CCc1cc(C(F)(C(F)(F)F)C(F)(F)F)cc(C)c1NC(=O)c1cccc(NC(=O)c2ccco2)c1` [Compound 32], the “insecticidal ratio (ratio of the dead larvae)” value is 100%. Turning to `CCc1cc(C(F)(C(F)(F)F)C(F)(F)F)cc(C)c1NC(=O)c1cccc(NC(=O)c2ccccc2F)c1` [Compound 63], the “insecticidal ratio (ratio of the dead larvae)” value is on record as 100%. On to `CCc1cc(C(F)(C(F)(F)F)C(F)(F)F)cc(C)c1NC(=O)c1cccc(NC(=O)c2ccccc2[N+](=O)[O-])c1` [Compound 53], for which the “insecticidal ratio (ratio of the dead larvae)” value is recorded as 100%.

Test system in a further data set: not given
Assay: not given
Details: not given
In the case of `Cc1cc(C(F)(C(F)(F)F)C(F)(F)F)cc(C)c1NC(=O)c1cccc(NC(=O)c2ccccc2Cl)c1` [Compound 75, 3-(2-chlorobenzoyl)amino-N-(2,6-dimethyl-4-heptafluoroisopropylphenyl)benzamide], the melting point – broadly, the temperature, or range, at which the solid turns liquid – was in the range of 141 to 145 °C.
